According to patent US10071042B2, “External dermatological agent for anti-ageing” (Hayashibara Co., Ltd., priority 2014, dated 2018):

What was measured:
[1] = test system: matrix metalloprotease-1; test: Matrix metalloprotease-1 production of NHDF after IL-1β, ELISA (Experiments 5 and 9); type: cell-based, human; conditions: 200 μM, single use; reduction against control
Description: Normal human dermal fibroblasts (NHDF), which had been suspended in a Dulbecco's Modified Eagle Medium supplemented with 10% fetal calf serum to give a concentration of 2.5×10^5 cells/mL, were placed in 96-well microplates by 0.1 mL/well and cultured until reaching a confluent state over the bottom of each well. Thereafter, the medium in each well was replaced with a fresh serum-free culture medium and culture for another 24 hours, added with any one of the test substances in Table 6 at each concentration shown in the table, and cultured for additional 24 hours. Then, the resulting cell cultures were added with human IL-1β to give a final concentration of 1 ng/ml, followed by culturing the cells for another 24 hours. After completion of the culture, matrix metalloprotease-1 in the supernatant in each well was detected with an enzyme-linked immuno sorbent assay (ELISA), commercialized by R & D Systems, Inc., MN, USA, developed coloration with tetramethylbenzidine, and measured for absorption at a wavelength of 450 nm. A control system was provided similarly as above except for not adding any test substance, and determined for the activity of matrix metalloprotease-1 similarly as in the above to be regarded as 100%. The production level of matrix metalloprotease-1 for each test substance was comparatively evaluated based on the following equation. Equation: Production level of matrix metalloprotease-1 (relative value (%))=[(Absorbance of a sample with any one of test substances)/(Absorbance of control)]×100
The experiment was repeated three times, and the data were compared to that of control with the Dunnett's multiple comparisons test. The symbol “*” means a level of significance of p<0.01.
Except for adding the test substances listed in Table 12 at respective concentrations shown in the table, experiments were respectively conducted in accordance with the methods in Experiment 5 disclosed in the specification to examine the effect of the combination use with ascorbic acid 2-glucoside used as a skin whitener in cosmetics on the action of anti-wrinkles by analogues of adenosine N1-oxide 5′-phosphate. A control system was provided and similarly treated as above except for not adding any test substance. The reduction rate of the production level of matrix metalloprotease-1 against that of control based on the following equation. Equation: Reduction rate of the production level of matrix metalloprotease−1(%)=100−[(Absorbance of a sample with any one of test substances)/(Absorbance of control)]×100

[2] = test system: filaggrin protein; test: Expression of filaggrin protein, Western blot filaggrin/actin (Experiment 3); type: cell-based, human; conditions: 0.5 mM (positive control); control = 100%
Description: Then, the expression of filaggrin was induced in such a manner of further culturing the cells for another four days, while replacing the culture medium with an EpiLife medium supplemented with 2 μM, 5 μM, or 10 μM of sodium adenosine N1-oxide 5′-phosphate every three days. […] After four days culture, the resultant cells were washed with Dulbecco's phosphate buffered saline, added with 0.1 mL of an SDS sample buffer (pH 6.8) containing 62.5 mM Tris-HCl, 2% SDS, 10% glycerol, and 50 mM DTT along with a protease inhibitor, and collected with a cell scraper. The collected cells were boiled for 10 min, disrupted ultrasonically, and quantified with “Pierce BCA Protein Assay Kit”, commercialized by ThermoFisher Scientific K. K., Yokohama, Japan. A prescribed amount of the resulting disrupted cells was sampled and subjected to SDS-polyacrylamide gel electrophoresis in an amount of 100 μg/lane, and the resulting gel was transferred to a PVDF membrane. The resulting transferred PVDF membrane was blocked with “Block Ace”, commercialized by DS Pharma Biomedical Co., Ltd., Osaka, Japan, reacted with a 200-fold dilution of “AKH1”, a mouse anti-filaggrin antibody, commercialized by, Santa Cruz Biotechnology Inc., CA, USA, or a 20,000-fold dilution of “MAB1501”, a mouse actin antibody, commercialized by Chemicon International Inc., MA, USA, as a first antibody, and then reacted with a 2,000-fold dilution of “P0447”, an HRP-labeled anti-mouse immunoglobulin, commercialized by Dako Japan, Tokyo, Japan, as a secondary antibody. After the reaction, by using ECL Plus Western Blotting Detection System, commercialized by GE Healthcare Japan, Tokyo, Japan, bands were detected on “Hyperfilm ECL”, a chemiluminescent film commercialized by GE Healthcare Japan, Tokyo, Japan. The detected bands were analyzed and quantified with “Image J”, an image analyzing software. A control system with no addition of any of the test substances was provided and the increasing intensity ratio of a band of filaggrin/actin was regarded as 100%, with which data for the increased percentages of the intensity ratios of bands of filaggrin/actin of the test substances were comparatively evaluated.

[3] = test system: normal human epidermal keratinocytes; test: Production level of cornified envelope, absorbance 310 nm (Experiments 1-2 and 7); type: cell-based; conditions: single use, increase over control
Description: Normal human epidermal keratinocytes were cultured similarly as in Experiment 1-1, except for adding the test substances listed in Table 2 at prescribed concentrations to the cells. The resulting cultured cells were washed once with phosphate buffered saline (PBS), followed by scrapping off the cells adhered to each culture plate by adding 0.5 mL of PBS to each well of the plates. The cell suspensions thus obtained were added with 10% sodium lauryl sulfate solution in a volume of ¼ of each of the suspension volumes, followed by stirring and freezing the resulting mixtures at −80° C. After thawing, the resulting mixtures were centrifuged at 12,000×g for 15 min, followed by collecting the cell precipitates which were then washed once with phosphate buffered saline containing 2% sodium lauryl sulfate. The resulting mixtures were centrifuged at 12,000×g for 15 min, followed by collecting the cells and suspending the collected cells with phosphate buffered saline containing 2% sodium lauryl sulfate and 20 mM dithiothreitol. The resulting cell suspensions were boiled in a boiling water bath for one hour and measured for absorbance at a wavelength of 310 nm to determine the production level of cornified envelope for each test system added with any of the test substances. A control system was provided similarly as above except for not adding any one of the test substances to the system, and determined for absorbance at a wavelength of 310 nm similarly as in the above to be regarded as 100%. The production level of cornified envelope for each test substance was relatively evaluated based on the following equation. Equation: Production level of cornified envelope (Relative value (%))=[(Absorbance of a sample with any one of test substances)/(Absorbance of Control)]×100
(§1) The experiment was repeated three times, and the data was subjected to the Dunnett's multiple comparisons with Control. The symbol “*” means a level of significance of p<0.01.
(§2) Except for adding the test substances listed in Tables 8 and 9 at respective concentrations shown in the tables, experiments were respectively conducted in accordance with the methods in Experiments 1-2 and 1-3 disclosed in the specification to examine the effect of the combination use of epigallocatechin gallate, which is used as an antioxidant for cosmetics, and sodium adenosine N1-oxide 5′-phosphate on the action of accelerating the cornified-envelope production and the action of enhancing the transglutaminase activity of sodium adenosine N1-oxide 5′-phosphate. A control system was provided and similarly treated as above except for not adding any test substance and was determined for both the increase rates of cornified-envelope production level and the transglutaminase activity, based on the following equations. Equation: Increase rate of cornified envelope production level (%)={[(Absorbance of a sample with any one of test substances)/(Absorbance of control)]×100}−100 Equation: Increase rate of transglutaminase (%)={[(Absorbance of a sample with any one of test substances)/(Absorbance of control)]×100}−100

[4] = test system: transglutaminase; test: Transglutaminase activity, fluorescein cadaverine uptake (Experiments 1-3 and 7); type: cell-based, human; conditions: single use, increase over control
Description: Normal human epidermal keratinocytes were cultured similarly as in Experiment 1-1, except for adding the test substances as listed in Table 3 to respective culture systems. The cultured normal human epidermal keratinocytes were added with 100 μM of fluorescein cadaverine and allowed to stand for four hours. Thereafter, the resulting cells were washed once with phosphate buffered saline and further treated with cold methanol for 10 min for cell fixation. The fixed cells were washed thrice with cold methanol, followed by the addition of phosphate buffered saline. Fluorescein cadaverine taken in the cells via transglutaminase was analyzed with Cell Imaging Station, commercialized by Molecular Probes Life Technology, France, and the analyzed fluorescent intensities were regarded as transglutaminase activities. There was provided a control system similarly as in the above, except for not adding any of the test substances. The transglutaminase activity of each test substance was evaluated as a relative value determined with the following equation using the fluorescent intensity of the control system being regarded as 100%. Equation: Transglutaminase activity (relative value (%))=[(Fluorescent intensity of a sample with any one of test substances)/(Fluorescent intensity of control)]×100
as §1, §2

[5] = test system: human epidermoid carcinoma cell line A-431; test: Tight-junction function, lucifer yellow transmittance (Experiments 2 and 8); type: cell-based; conditions: 3 mM, single use; reduction against control
Text: A human epidermoid carcinoma cell line A-431 was suspended in a media, supplemented with any of the test substances disclosed in Table 4 and having respective concentrations as indicated in the table, to give a cell concentration of 1×10^5 cells/mL, and each cell suspension was placed in an insert cup for a 12-well culture plate by two milliliters per well, followed by culturing the cells until reaching a confluent state through over the bottom surface of each well. The inner and the outer cup volumes were adjusted to give two milliliters while checking both the liquid levels of the cups were constant, and lucifer yellow as a model for permeating substance, commercialized by Life Technologies Corporation, CA, USA, was added to each inner cup to give a final concentration of 100 μM. Thereafter, the fluorescent intensities of lucifer yellow in the culture media in both the inner and the outer cups were measured, followed by calculating the percentage of the fluorescent intensity of the outer cup against that of the sum of the outer and the inner cups for use as a transmittance of lucifer yellow with the following equation. Equation: Transmittance of lucifer yellow (%)={(Absorbance of a liquid outside of an insert cup)/[(Absorbance of a liquid inside of the insert cup)+(Absorbance of the liquid outside of the insert cup)]}×100
There was provided a control system prepared similarly as above except for not adding any of the test substances, and the transmittance of lucifer yellow was regarded as 100% for evaluating the reduction of transmittance due to the reinforcement of the function of tight junction, based on the following equation. Equation: Relative transmittance (Relative percentage (%)) of lucifer yellow=[(Transmittance of a sample with any one of test substances)/(Transmittance of control)]×100
The experiment was repeated three times, and the data was subjected to the Dunnett's multiple comparisons with control. The symbol “*” means a level of significance of p<0.01.
Except for adding the test substances listed in Table 11 at respective concentrations shown in the table, experiments were respectively conducted in accordance with the methods in Experiment 2 disclosed in the specification to examine the effect of the combination use with ethylenediaminetetraacetate used as a preservative for cosmetics on the action of reinforcing the function of tight junction by sodium adenosine N1-oxide 5′-phosphate. A control system was provided and similarly treated as above except for not adding any test substance. The reduction rate of relative transmittance of lucifer yellow against that of control based on the following equation. Equation: Reduction rate of relative transmittance of lucifer yellow (%)=100−[(Transmittance of a sample with any one of test substances)/(Transmittance of control)]×100

## O=C1O[C@H]([C@@H](O)CO)C(O)=C1O[C@H]1O[C@H](CO)[C@@H](O)[C@H](O)[C@H]1O [Ascorbic acid 2-glucoside, reference compound]
[1]
  Reduction rate of the production level of matrix metalloprotease-1 activity (%): 2.1%

## [Ca+2].[Cl-].[Cl-] [CaCl2, calcium chloride, reference compound]
[2]
  Relative expression level of filaggrin protein (%): 289%

## O=C(O[C@@H]1Cc2c(O)cc(O)cc2O[C@@H]1c1cc(O)c(O)c(O)c1)c1cc(O)c(O)c(O)c1 [Epigallocatechin gallate, reference compound]
[3]; 1.6 μM
  Increase rate of cornified envelope formation level (%): 28.0%
[3]; 3.3 μM
  Increase rate of cornified envelope formation level (%): 37.3%
[4]; 1.6 μM
  Increase rate of transglutaminase activity (%): 5.6%
[4]; 3.3 μM
  Increase rate of transglutaminase activity (%): 19.0%
[4]; 6.5 μM
  Increase rate of transglutaminase activity (%): 6.5%

## O=C(O)CN(CCN(CC(=O)O)CC(=O)O)CC(=O)O [Ethylenediaminetetraacetate, reference compound]
[5]
  Reduction rate of relative transmittance of lucifer yellow (%): −24.7%
